Test: mn = molality of the nth substance listed, in mol/kg
Settings: 101 kPa, Liquid; for viscosity: Capillary tube (Ostwald / Ubbelohde) method

CN1CCCC1=O.Cc1ccc(S(=O)(=O)O)cc1 [1-methyl-2-pyrrolidinone p-toluenesulfonate] + O
Settings | mass density, 298.15 K [kg/m3] | mass density, 303.15 K [kg/m3] | mass density, 308.15 K [kg/m3] | viscosity, 298.15 K [mPa·s] | viscosity, 303.15 K [mPa·s] | viscosity, 308.15 K [mPa·s]
m1 = 0.0499 | 999.98 | 998.53 | 996.06 | 0.9405 | 0.8355 | 0.7579
m1 = 0.1012 | 1002.71 | 1000.47 | 998.66 | 0.9707 | 0.8613 | 0.7776
m1 = 0.1588 | 1005.8 | 1004.01 | 1002.3 | 0.9996 | 0.8905 | 0.8002
m1 = 0.1983 | 1007.95 | 1006.37 | 1004.65 | 1.021 | 0.9097 | 0.8164
m1 = 0.2691 | 1011.73 | 1010.16 | 1008.34 | 1.059 | 0.9445 | 0.8406
m1 = 0.3004 | 1013.31 | 1011.73 | 1009.85 | 1.077 | 0.9602 | 0.8511
m1 = 0.3421 | 1015.42 | 1013.71 | 1011.83 | 1.1 | 0.9826 | 0.8691
m1 = 0.398 | 1018.29 | 1016.41 | 1014.42 | 1.13 | 1.007 | 0.892
m1 = 0.4495 | 1020.8 | 1018.89 | 1016.77 | 1.155 | 1.03 | 0.9131
m1 = 0.5139 | 1023.87 | 1021.88 | 1019.63 | 1.191 | 1.058 | 0.9369
m1 = 0.6053 | 1028.17 | 1026.17 | 1023.9 | 1.241 | 1.099 | 0.9752
m1 = 0.6615 | 1030.76 | 1028.65 | 1026.41 | 1.272 | 1.127 | 0.9976
m1 = 0.7504 | 1034.66 | 1032.58 | 1030.21 | 1.319 | 1.169 | 1.036
m1 = 0.7605 | 1035.06 | 1033 | 1030.65 | 1.324 | 1.173 | 1.04
m1 = 0.8335 | 1038.2 | 1036.01 | 1033.59 | 1.366 | 1.207 | 1.072
m1 = 0.9023 | 1041.05 | 1038.67 | 1036.34 | 1.411 | 1.244 | 1.106
m1 = 1.007 | 1045.23 | 1042.61 | 1040.36 | 1.477 | 1.299 | 1.161
m1 = 1.201 | 1052.61 | 1050.61 | 1048.17 | 1.61 | 1.409 | 1.266

O=C1CCC[NH+]1C1CCCCC1.O=S(=O)([O-])c1ccccc1 [1-cyclohexyl-2-oxopyrrolidin-1-ium benzenesulfonate] + O
Settings | mass density, 298.15 K [kg/m3] | mass density, 303.15 K [kg/m3] | mass density, 308.15 K [kg/m3] | viscosity, 298.15 K [mPa·s] | viscosity, 303.15 K [mPa·s] | viscosity, 308.15 K [mPa·s]
m1 = 0.0509 | 999.45 | 997.89 | 995.97 | 0.9377 | 0.8235 | 0.7406
m1 = 0.1005 | 1002.85 | 1001.35 | 999.03 | 0.9703 | 0.8645 | 0.7786
m1 = 0.1478 | 1005.4 | 1003.96 | 1001.85 | 1.01 | 0.8892 | 0.8095
m1 = 0.1987 | 1007.93 | 1006.42 | 1004.55 | 1.057 | 0.9268 | 0.8407
m1 = 0.2532 | 1010.59 | 1009.02 | 1007.24 | 1.11 | 0.9692 | 0.8758
m1 = 0.3009 | 1013.05 | 1011.32 | 1009.49 | 1.153 | 1.009 | 0.9088
m1 = 0.3497 | 1015.5 | 1013.84 | 1011.74 | 1.199 | 1.051 | 0.9404
m1 = 0.4013 | 1018.26 | 1016.55 | 1014.3 | 1.247 | 1.097 | 0.9772
m1 = 0.4514 | 1021.07 | 1019.24 | 1016.92 | 1.292 | 1.141 | 1.013
m1 = 0.5008 | 1023.74 | 1022.03 | 1019.52 | 1.337 | 1.181 | 1.046
m1 = 0.5492 | 1026.44 | 1024.55 | 1022.06 | 1.383 | 1.224 | 1.083
m1 = 0.6024 | 1029.39 | 1027.42 | 1024.91 | 1.432 | 1.268 | 1.123
m1 = 0.6506 | 1031.86 | 1029.91 | 1027.47 | 1.479 | 1.309 | 1.163
m1 = 0.7603 | 1037.45 | 1035.1 | 1032.83 | 1.588 | 1.405 | 1.249
m1 = 0.7986 | 1039.18 | 1036.89 | 1034.62 | 1.631 | 1.442 | 1.283
m1 = 0.9023 | 1043.64 | 1041.09 | 1038.92 | 1.736 | 1.535 | 1.373
m1 = 0.9974 | 1047.35 | 1044.52 | 1042.51 | 1.838 | 1.623 | 1.448
m1 = 1.199 | 1054.63 | 1052.23 | 1049.68 | 2.08 | 1.81 | 1.617
